{
  "source": "ChEMBL document CHEMBL4346729",
  "about": "“The discovery of novel 3-aryl-indazole derivatives as peripherally restricted pan-Trk inhibitors for the treatment of pain” (Bioorg Med Chem Lett, 2019)",
  "key": {"[1]": {"assay": "Toxicity in CFA induced Sprague-Dawley rat assessed as increase in weight gain at 100 mg/kg, po and measured up to 3 days", "format": "organism-based", "conditions": "in vivo, 72 h"}, "[2]": {"biological_target": "Protein kinase C theta type (Homo sapiens) (UniProt Q04759)", "assay": "Inhibition of recombinant human full length N-terminal GST and C-terminal His6-tagged PKC-theta (M1 to S706) expressed in Sf9 insect cells at 20 nM using phosphatidylserine as substrate incubated for 60 mins in presence of [33P]-ATP by scintillation counting method"}, "[3]": {"system": "Rattus norvegicus", "assay": "Antinociceptive activity in CFA induced thermal hypersensitivity Sprague-Dawley rat model assessed as increase in paw withdrawal latency at 100 mg/kg, po after 1 hr", "format": "functional, organism-based"}, "[4]": {"biological_target": "Vascular endothelial growth factor receptor 2 (Homo sapiens) (UniProt P35968)", "sequence (P35968 whole entry)": "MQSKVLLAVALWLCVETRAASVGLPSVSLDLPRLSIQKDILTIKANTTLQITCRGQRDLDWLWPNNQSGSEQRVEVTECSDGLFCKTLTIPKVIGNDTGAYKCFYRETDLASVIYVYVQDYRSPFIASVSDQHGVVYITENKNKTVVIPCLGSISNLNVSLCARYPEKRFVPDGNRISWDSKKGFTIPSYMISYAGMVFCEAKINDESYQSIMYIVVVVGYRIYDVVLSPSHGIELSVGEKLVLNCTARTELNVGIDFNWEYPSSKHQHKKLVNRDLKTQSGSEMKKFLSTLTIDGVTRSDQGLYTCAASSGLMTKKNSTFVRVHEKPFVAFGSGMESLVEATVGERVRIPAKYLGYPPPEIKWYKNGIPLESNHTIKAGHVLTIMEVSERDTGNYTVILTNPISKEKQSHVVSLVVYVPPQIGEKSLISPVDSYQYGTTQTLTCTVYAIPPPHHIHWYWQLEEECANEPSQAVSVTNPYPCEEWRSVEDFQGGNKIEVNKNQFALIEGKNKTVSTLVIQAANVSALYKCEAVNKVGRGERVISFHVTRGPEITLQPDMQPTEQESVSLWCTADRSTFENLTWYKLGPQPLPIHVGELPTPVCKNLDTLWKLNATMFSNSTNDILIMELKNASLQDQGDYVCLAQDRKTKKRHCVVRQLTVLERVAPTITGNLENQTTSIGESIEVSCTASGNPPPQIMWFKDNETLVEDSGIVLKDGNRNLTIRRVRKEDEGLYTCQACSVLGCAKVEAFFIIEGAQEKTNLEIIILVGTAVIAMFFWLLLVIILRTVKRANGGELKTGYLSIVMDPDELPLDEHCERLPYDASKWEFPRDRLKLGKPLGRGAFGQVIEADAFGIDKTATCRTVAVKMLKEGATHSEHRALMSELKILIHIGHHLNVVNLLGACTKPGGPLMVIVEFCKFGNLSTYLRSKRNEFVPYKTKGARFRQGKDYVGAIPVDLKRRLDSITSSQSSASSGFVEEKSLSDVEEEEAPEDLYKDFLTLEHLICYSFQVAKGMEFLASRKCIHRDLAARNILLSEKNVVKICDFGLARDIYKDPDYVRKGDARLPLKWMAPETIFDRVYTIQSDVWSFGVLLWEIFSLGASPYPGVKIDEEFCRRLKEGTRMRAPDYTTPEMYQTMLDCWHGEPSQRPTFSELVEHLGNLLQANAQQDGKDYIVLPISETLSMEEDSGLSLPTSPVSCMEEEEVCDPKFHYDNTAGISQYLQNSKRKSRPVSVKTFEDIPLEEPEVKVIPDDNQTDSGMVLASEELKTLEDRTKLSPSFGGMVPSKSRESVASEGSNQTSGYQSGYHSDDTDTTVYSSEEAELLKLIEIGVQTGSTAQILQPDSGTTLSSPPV", "assay": "Inhibition of recombinant human N-terminal GST-tagged VEGF-R2 C-terminal (G443 to G796) expressed in Sf9 insect cells at 20 nM using phosphatidylserine as substrate incubated for 60 mins in presence of [33P]-ATP by scintillation counting method"}, "[5]": {"biological_target": "Aurora kinase A (Homo sapiens) (UniProt O14965)", "assay": "Inhibition of recombinant human full length N-terminal GST/His6-tagged Aurora-A (M1 to S403) expressed in Sf9 insect cells at 20 nM using phosphatidylserine as substrate incubated for 60 mins in presence of [33P]-ATP by scintillation counting method"}, "[6]": {"biological_target": "Tyrosine-protein kinase BTK (Homo sapiens) (UniProt Q06187)", "sequence (Q06187 whole entry)": "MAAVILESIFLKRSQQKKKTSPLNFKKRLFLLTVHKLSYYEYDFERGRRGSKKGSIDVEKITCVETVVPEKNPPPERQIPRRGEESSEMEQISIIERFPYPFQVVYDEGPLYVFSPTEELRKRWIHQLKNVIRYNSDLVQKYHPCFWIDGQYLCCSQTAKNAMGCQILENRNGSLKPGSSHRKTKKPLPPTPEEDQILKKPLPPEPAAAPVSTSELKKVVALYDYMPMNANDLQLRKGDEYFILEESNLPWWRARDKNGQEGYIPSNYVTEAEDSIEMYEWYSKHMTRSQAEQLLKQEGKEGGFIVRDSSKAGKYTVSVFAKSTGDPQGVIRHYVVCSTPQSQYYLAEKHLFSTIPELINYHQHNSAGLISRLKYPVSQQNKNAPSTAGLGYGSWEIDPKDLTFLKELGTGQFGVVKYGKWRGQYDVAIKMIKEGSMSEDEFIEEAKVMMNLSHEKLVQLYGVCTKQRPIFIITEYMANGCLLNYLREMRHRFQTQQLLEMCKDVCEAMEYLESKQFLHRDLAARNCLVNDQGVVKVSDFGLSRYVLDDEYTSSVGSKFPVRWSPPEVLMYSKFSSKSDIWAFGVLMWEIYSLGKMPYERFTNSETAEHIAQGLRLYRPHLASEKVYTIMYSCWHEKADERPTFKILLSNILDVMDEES", "assay": "Inhibition of recombinant human full length N-terminal GST/His6-tagged BTK (M1 to S659) expressed in Sf9 insect cells at 20 nM using phosphatidylserine as substrate incubated for 60 mins in presence of [33P]-ATP by scintillation counting method"}, "[7]": {"biological_target": "Dual specificity tyrosine-phosphorylation-regulated kinase 1A (Homo sapiens) (UniProt Q13627)", "assay": "Inhibition of DYRK1A (unknown origin) at 20 nM using phosphatidylserine as substrate incubated for 60 mins in presence of [33P]-ATP by scintillation counting method"}, "[8]": {"assay": "Solubility of test compound", "format": "physicochemical"}, "[9]": {"biological_target": "MAP kinase-activated protein kinase 5 (Homo sapiens) (UniProt Q8IW41)", "assay": "Inhibition of recombinant human full length MAPKAPK5 (M1 to Q471) expressed in Escherichia coli at 20 nM using phosphatidylserine as substrate incubated for 60 mins in presence of [33P]-ATP by scintillation counting method"}, "[10]": {"biological_target": "Interleukin-1 receptor-associated kinase 4 (Homo sapiens) (UniProt Q9NWZ3)", "sequence (Q9NWZ3 whole entry)": "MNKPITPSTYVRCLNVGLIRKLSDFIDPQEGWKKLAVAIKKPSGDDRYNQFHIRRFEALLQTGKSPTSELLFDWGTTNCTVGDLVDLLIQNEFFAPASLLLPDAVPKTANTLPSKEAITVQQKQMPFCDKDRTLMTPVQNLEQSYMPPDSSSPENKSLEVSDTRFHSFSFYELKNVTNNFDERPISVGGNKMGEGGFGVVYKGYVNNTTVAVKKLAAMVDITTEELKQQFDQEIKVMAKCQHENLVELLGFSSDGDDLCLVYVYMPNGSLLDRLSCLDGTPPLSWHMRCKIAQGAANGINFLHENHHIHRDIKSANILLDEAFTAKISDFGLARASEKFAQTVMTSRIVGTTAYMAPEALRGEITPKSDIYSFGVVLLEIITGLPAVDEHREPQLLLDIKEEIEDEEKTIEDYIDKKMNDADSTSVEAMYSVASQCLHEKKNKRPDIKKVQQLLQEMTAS", "assay": "Inhibition of recombinant human IRAK4 C-terminal (A104 to S460) expressed in Sf9 insect cells at 20 nM using phosphatidylserine as substrate incubated for 60 mins in presence of [33P]-ATP by scintillation counting method"}, "[11]": {"biological_target": "Rho-associated protein kinase 2 (Homo sapiens) (UniProt O75116)", "assay": "Inhibition of recombinant human N-terminal GST/His6-tagged ROCK2 internal (P6 to S553) expressed in baculovirus infected Sf9 insect cells at 20 nM using phosphatidylserine as substrate incubated for 60 mins in presence of [33P]-ATP by scintillation counting method"}, "[12]": {"biological_target": "Mitogen-activated protein kinase 14 (Homo sapiens) (UniProt Q16539)", "assay": "Inhibition of recombinant human full length p38-alpha (M1 to S360) expressed in Escherichia coli at 20 nM using phosphatidylserine as substrate incubated for 60 mins in presence of [33P]-ATP by scintillation counting method"}, "[13]": {"biological_target": "Serine/threonine-protein kinase 3 (Homo sapiens) (UniProt Q13188)", "assay": "Inhibition of recombinant human full length MST2 (M1 to F491) expressed in Sf9 insect cells at 20 nM using phosphatidylserine as substrate incubated for 60 mins in presence of [33P]-ATP by scintillation counting method"}, "[14]": {"assay": "Ratio of drug level in brain to plasma of Sprague-Dawley rat at 2.5 mg/kg, ip", "format": "ADME, organism-based", "conditions": "read-out: BPR"}, "[15]": {"biological_target": "RAC-alpha serine/threonine-protein kinase (Homo sapiens) (UniProt P31749)", "sequence (P31749 whole entry)": "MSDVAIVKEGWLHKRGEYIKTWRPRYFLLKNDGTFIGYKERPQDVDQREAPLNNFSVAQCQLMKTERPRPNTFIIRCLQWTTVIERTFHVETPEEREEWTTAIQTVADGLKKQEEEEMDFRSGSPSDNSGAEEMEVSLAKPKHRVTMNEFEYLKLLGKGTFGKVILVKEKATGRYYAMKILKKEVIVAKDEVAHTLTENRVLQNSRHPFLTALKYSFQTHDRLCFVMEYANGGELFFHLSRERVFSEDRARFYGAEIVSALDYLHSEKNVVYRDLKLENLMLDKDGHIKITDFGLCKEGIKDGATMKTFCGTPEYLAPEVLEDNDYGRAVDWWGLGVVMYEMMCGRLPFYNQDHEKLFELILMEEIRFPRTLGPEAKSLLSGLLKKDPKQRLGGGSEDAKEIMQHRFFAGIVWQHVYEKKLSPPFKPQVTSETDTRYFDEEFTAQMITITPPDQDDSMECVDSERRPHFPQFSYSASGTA", "assay": "Inhibition of recombinant human N-terminal GST/His6-tagged and C-terminal His6-tagged AKT1(V106 to A480) expressed in Sf9 insect cells at 20 nM using phosphatidylserine as substrate incubated for 60 mins in presence of [33P]-ATP by scintillation counting method"}, "[16]": {"biological_target": "Activin receptor type-1 (Homo sapiens) (UniProt Q04771)", "assay": "Inhibition of recombinant human N-terminal GST/His6-tagged ACVR1 C-terminal (A145 to C509) expressed in Sf9 insect cells at 20 nM using phosphatidylserine as substrate incubated for 60 mins in presence of [33P]-ATP by scintillation counting method"}, "[17]": {"biological_target": "Tyrosine-protein kinase Lyn (Homo sapiens) (UniProt P07948)", "sequence (P07948 2-512 limits assumed)": "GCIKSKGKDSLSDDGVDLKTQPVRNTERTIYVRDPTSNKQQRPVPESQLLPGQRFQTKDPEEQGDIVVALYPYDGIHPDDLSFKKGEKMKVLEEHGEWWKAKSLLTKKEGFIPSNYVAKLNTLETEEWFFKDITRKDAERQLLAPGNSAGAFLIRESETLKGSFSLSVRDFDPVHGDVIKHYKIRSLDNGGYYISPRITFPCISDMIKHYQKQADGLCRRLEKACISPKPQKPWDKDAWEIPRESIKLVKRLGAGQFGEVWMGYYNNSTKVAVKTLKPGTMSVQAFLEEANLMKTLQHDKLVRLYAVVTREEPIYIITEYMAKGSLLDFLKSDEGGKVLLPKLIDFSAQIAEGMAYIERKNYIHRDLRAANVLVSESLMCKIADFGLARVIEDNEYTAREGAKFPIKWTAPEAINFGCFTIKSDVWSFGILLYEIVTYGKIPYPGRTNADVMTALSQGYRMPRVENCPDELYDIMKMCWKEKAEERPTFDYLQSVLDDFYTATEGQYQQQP", "assay": "Inhibition of recombinant human full length N-terminal GST/His6-tagged LYN (M1 to P512) expressed in Sf9 insect cells at 20 nM using phosphatidylserine as substrate incubated for 60 mins in presence of [33P]-ATP by scintillation counting method"}, "[18]": {"biological_target": "Proto-oncogene tyrosine-protein kinase Src (Homo sapiens) (UniProt P12931)", "sequence (P12931 2-536 limits assumed)": "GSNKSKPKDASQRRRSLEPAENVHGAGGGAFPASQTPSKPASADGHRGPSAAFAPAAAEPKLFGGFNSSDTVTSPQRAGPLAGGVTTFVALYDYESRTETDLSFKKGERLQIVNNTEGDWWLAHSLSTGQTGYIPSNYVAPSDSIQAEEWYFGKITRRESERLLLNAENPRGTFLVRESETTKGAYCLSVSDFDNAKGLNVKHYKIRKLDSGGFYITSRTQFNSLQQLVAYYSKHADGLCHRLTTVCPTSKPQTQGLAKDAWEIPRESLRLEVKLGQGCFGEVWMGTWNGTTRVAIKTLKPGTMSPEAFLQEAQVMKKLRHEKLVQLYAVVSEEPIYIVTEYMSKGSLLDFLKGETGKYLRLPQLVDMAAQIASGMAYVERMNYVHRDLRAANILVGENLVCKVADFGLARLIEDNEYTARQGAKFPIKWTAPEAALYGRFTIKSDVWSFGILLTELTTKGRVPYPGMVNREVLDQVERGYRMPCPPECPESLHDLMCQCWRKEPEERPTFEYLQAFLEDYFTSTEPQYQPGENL", "assay": "Inhibition of recombinant human full length N-terminal GST and C-terminal His6-tagged SRC (M1 to L536) expressed in Sf9 insect cells at 20 nM using phosphatidylserine as substrate incubated for 60 mins in presence of [33P]-ATP by scintillation counting method"}, "[19]": {"system": "Rattus norvegicus", "assay": "Antinociceptive activity in CFA induced thermal hypersensitivity Sprague-Dawley rat model assessed as increase in paw withdrawal latency at 20 mg/kg, po after 1 hr", "format": "functional, organism-based"}, "[20]": {"biological_target": "Cyclin-dependent kinase 2/cyclin E1 (Homo sapiens) (UniProt P24864+P24941)", "assay": "Inhibition of CDK2/Cyclin-E1 (unknown origin) at 20 nM using Phosphatidylserine as substrate incubated for 60 mins in presence of [33P]-ATP by scintillation counting method", "format": "protein-complex assay"}, "[21]": {"biological_target": "Casein kinase II subunit alpha (Homo sapiens) (UniProt P68400)", "sequence (P68400 whole entry, looked up)": "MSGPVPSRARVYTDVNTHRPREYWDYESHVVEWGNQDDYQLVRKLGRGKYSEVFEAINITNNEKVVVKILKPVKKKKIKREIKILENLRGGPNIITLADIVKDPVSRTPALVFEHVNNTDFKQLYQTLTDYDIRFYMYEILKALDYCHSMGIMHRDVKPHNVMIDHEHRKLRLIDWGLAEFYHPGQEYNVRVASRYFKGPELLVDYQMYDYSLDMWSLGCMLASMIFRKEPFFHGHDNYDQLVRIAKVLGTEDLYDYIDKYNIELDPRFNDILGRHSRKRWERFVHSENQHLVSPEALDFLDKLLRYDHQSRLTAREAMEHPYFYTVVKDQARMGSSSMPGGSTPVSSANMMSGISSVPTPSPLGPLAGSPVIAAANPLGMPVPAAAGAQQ", "assay": "Inhibition of recombinant human full length N-terminal GST and C-terminal His6-tagged CK2-alpha (M1 to Q391) expressed in Sf9 insect cells at 20 nM using phosphatidylserine as substrate incubated for 60 mins in presence of [33P]-ATP by scintillation counting method"}, "[22]": {"biological_target": "MAP kinase-activated protein kinase 2 (Homo sapiens) (UniProt P49137)", "sequence (P49137 whole entry, looked up)": "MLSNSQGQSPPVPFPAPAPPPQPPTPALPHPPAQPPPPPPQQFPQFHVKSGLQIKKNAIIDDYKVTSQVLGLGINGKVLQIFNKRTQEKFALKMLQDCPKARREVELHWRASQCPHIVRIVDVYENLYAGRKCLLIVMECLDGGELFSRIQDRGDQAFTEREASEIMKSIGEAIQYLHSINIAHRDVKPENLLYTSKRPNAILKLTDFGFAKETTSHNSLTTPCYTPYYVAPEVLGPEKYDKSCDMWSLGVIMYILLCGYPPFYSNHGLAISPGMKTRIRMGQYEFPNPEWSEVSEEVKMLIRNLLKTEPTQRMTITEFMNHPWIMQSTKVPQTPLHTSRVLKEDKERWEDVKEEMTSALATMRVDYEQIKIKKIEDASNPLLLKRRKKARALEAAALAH", "assay": "Inhibition of recombinant human full length N-terminal GST/His6-tagged MAPKAPK2 (M1 to L370) expressed in Sf9 insect cells at 20 nM using phosphatidylserine as substrate incubated for 60 mins in presence of [33P]-ATP by scintillation counting method"}, "[23]": {"biological_target": "Serine/threonine-protein kinase Chk2 (Homo sapiens) (UniProt O96017)", "assay": "Inhibition of CHK2 (unknown origin) at 20 nM using phosphatidylserine as substrate incubated for 60 mins in presence of [33P]-ATP by scintillation counting method"}, "[24]": {"assay": "Unbound drug level in brain of CFA induced Sprague-Dawley rat at 20 mg/kg, po after 1 hr", "format": "ADME, organism-based", "conditions": "in vivo"}, "[25]": {"system": "Rattus norvegicus", "assay": "Antinociceptive activity in CFA induced thermal hypersensitivity Sprague-Dawley rat model assessed as increase in paw withdrawal latency at 0.8 mg/kg, po after 1 hr", "format": "functional, organism-based"}},
  "note": "Active and inactive are the calls of the source. The rule behind the calls is not given here.",
  "data": [
    {"smiles": "Cn1cc(-c2n[nH]c3ccc(NCc4cc(F)ccc4S(C)(=O)=O)cc23)cn1", "values": [
      {"measurement": "Activity", "setting": "[1]", "result": "Toxic"},
      {"measurement": "inhibition", "setting": "[2]", "result": -2, "unit": "%"},
      {"measurement": "Activity", "setting": "[3]", "result": "Active"},
      {"measurement": "inhibition", "setting": "[4]", "result": 4, "unit": "%"},
      {"measurement": "inhibition", "setting": "[5]", "result": -7, "unit": "%"},
      {"measurement": "inhibition", "setting": "[6]", "result": -6, "unit": "%"},
      {"measurement": "inhibition", "setting": "[7]", "result": -7, "unit": "%"},
      {"measurement": "solubility", "setting": "[8]", "result": 141, "unit": "µM"},
      {"measurement": "inhibition", "setting": "[9]", "result": 6, "unit": "%"},
      {"measurement": "inhibition", "setting": "[10]", "result": -8, "unit": "%"},
      {"measurement": "inhibition", "setting": "[11]", "result": 5, "unit": "%"},
      {"measurement": "inhibition", "setting": "[12]", "result": -8, "unit": "%"},
      {"measurement": "inhibition", "setting": "[13]", "result": 3, "unit": "%"},
      {"measurement": "Kp", "setting": "[14]", "result": 0.03},
      {"measurement": "inhibition", "setting": "[15]", "result": 6, "unit": "%"},
      {"measurement": "inhibition", "setting": "[16]", "result": -2, "unit": "%"},
      {"measurement": "inhibition", "setting": "[17]", "result": -1, "unit": "%"},
      {"measurement": "inhibition", "setting": "[18]", "result": 2, "unit": "%"},
      {"measurement": "Activity", "setting": "[19]", "result": "Active"},
      {"measurement": "inhibition", "setting": "[20]", "result": 5, "unit": "%"},
      {"measurement": "inhibition", "setting": "[21]", "result": 7, "unit": "%"},
      {"measurement": "inhibition", "setting": "[22]", "result": 19, "unit": "%"},
      {"measurement": "inhibition", "setting": "[23]", "result": -1, "unit": "%"},
      {"measurement": "Drug uptake(free)", "setting": "[24]", "result": 1.5, "unit": "nM"},
      {"measurement": "Activity", "setting": "[25]", "result": "inactive"}
    ]}
  ]
}
